The values below come from ChEMBL document CHEMBL5303573, “Mapping human microbiome drug metabolism by gut bacteria and their genes” (Nature, 2019).

Molecules are shown by their SMILES.

Data set [1] in a line: The drug is tested on Bifidobacterium ruminantium strain: fecal isolate for biotransformation. The drug concentrations were measured before and after a 12-h incubation by liquid-chromatography-coupled mass spectrometry (LC–MS). The note with it: 2 µM.
The nature of data set [2]: The drug is tested on Collinsella aerofaciens strain: ATCC25986 for biotransformation. The drug concentrations were measured before and after a 12-h incubation by liquid-chromatography-coupled mass spectrometry (LC–MS). The note with it: 2 µM.
Data set [3] is described as follows: The drug is tested on Bacteroides caccae strain: ATCC43185 for biotransformation. The drug concentrations were measured before and after a 12-h incubation by liquid-chromatography-coupled mass spectrometry (LC–MS). Conditions: 2 µM.
Data set [4] can be described thus: The drug is tested on Bacteroides finegoldii strain: DSM17565 for biotransformation. The drug concentrations were measured before and after a 12-h incubation by liquid-chromatography-coupled mass spectrometry (LC–MS). Conditions: 2 µM.
Data set [5] in a line: The drug is tested on Odoribacter splanchnicus strain: fecal isolate for biotransformation. The drug concentrations were measured before and after a 12-h incubation by liquid-chromatography-coupled mass spectrometry (LC–MS). The note with it: 2 µM.
Data set [6] in a line: The drug is tested on Clostridium asparagiforme strain: DSM15981 for biotransformation. The drug concentrations were measured before and after a 12-h incubation by liquid-chromatography-coupled mass spectrometry (LC–MS). Format: ADME. Set-up: dose 2 uM, timepoint 0 vs 12 hours. Conditions: enterocloster asparagiformis, 2 µM.
Data set [7] in a line: The drug is tested on Clostridium sp. strain: fecal isolate for biotransformation. The drug concentrations were measured before and after a 12-h incubation by liquid-chromatography-coupled mass spectrometry (LC–MS). Conditions: 2 µM.
Data set [8] can be described thus: The drug is tested on Clostridium scindens strain: ATCC35704 for biotransformation. The drug concentrations were measured before and after a 12-h incubation by liquid-chromatography-coupled mass spectrometry (LC–MS). Conditions: 2 µM.
The nature of data set [9]: The drug is tested on Clostridium symbiosum strain: ATCC14940 for biotransformation. The drug concentrations were measured before and after a 12-h incubation by liquid-chromatography-coupled mass spectrometry (LC–MS). The note with it: 2 µM.
Data set [10] can be described thus: The drug is tested on Enterococcus faecalis strain: V583 for biotransformation. The drug concentrations were measured before and after a 12-h incubation by liquid-chromatography-coupled mass spectrometry (LC–MS). The note with it: 2 µM.
The nature of data set [11]: The drug is tested on Eubacterium rectale strain: ATCC33656 for biotransformation. The drug concentrations were measured before and after a 12-h incubation by liquid-chromatography-coupled mass spectrometry (LC–MS). Conditions: agathobacter rectalis, 2 µM.
The nature of data set [12]: The drug is tested on Escherichia coli strain: BW25113 for biotransformation. The drug concentrations were measured before and after a 12-h incubation by liquid-chromatography-coupled mass spectrometry (LC–MS). Conditions: 2 µM.
The conditions of data set [13]: bacteroides eggerthii, 12 h, 2 µM.
Description: The drug is tested on Bacteroides eggerthii strain: DSM20697 for biotransformation. The drug concentrations were measured before and after a 12-h incubation by liquid-chromatography-coupled mass spectrometry (LC–MS)
For data set [14] the following is noted: bacteroides thetaiotaomicron, 12 h, 2 µM.
Description: The drug is tested on Bacteroides thetaiotaomicron strain: 7330 for biotransformation. The drug concentrations were measured before and after a 12-h incubation by liquid-chromatography-coupled mass spectrometry (LC–MS)
For data set [15] the following is noted: parabacteroides distasonis, 12 h, 2 µM.
Description: The drug is tested on Parabacteroides distasonis strain: ATCC8503 for biotransformation. The drug concentrations were measured before and after a 12-h incubation by liquid-chromatography-coupled mass spectrometry (LC–MS)
For data set [16] the following is noted: parabacteroides johnsonii, 12 h, 2 µM.
Description: The drug is tested on Parabacteroides johnsonii strain: DSM18315 for biotransformation. The drug concentrations were measured before and after a 12-h incubation by liquid-chromatography-coupled mass spectrometry (LC–MS)
The conditions of data set [17]: segatella copri, 12 h, 2 µM.
Description: The drug is tested on Prevotella copri strain: DSM18205 for biotransformation. The drug concentrations were measured before and after a 12-h incubation by liquid-chromatography-coupled mass spectrometry (LC–MS)
Data set [18] can be described thus: The drug is tested on Bacteroides uniformis strain: ATCC8492 for biotransformation. The drug concentrations were measured before and after a 12-h incubation by liquid-chromatography-coupled mass spectrometry (LC–MS). Conditions: 2 µM.
The nature of data set [19]: The drug is tested on Alistipes indistinctus strain: DSM22520 for biotransformation. The drug concentrations were measured before and after a 12-h incubation by liquid-chromatography-coupled mass spectrometry (LC–MS). The note with it: 2 µM.
A short description of data set [20]: The drug is tested on Bacteroides cellulosilyticus strain: DSM14838 for biotransformation. The drug concentrations were measured before and after a 12-h incubation by liquid-chromatography-coupled mass spectrometry (LC–MS). The note with it: 2 µM.

Turning to `CCN(CC)C(=O)C1(c2ccccc2)CC1CN` (stereo unspecified), the “Bacterial Biotransformation” value in [1], in data set [2], in [3], in data set [4], in data set [5] and in data set [6] was “Compound NOT metabolized” throughout. Further, the “Bacterial Biotransformation” value in [7], in data set [8], in [9], in data set [10], in data set [11] and in [12] was “Compound NOT metabolized” throughout. Besides, the “Bacterial Biotransformation” value in [13], in data set [14], in [15], in data set [16] and in data set [17] was “Compound NOT metabolized” each time.

In the case of `CN(C)CC(c1ccc(O)cc1)C1(O)CCCCC1.O=C(O)CCC(=O)O` (stereo unspecified) [DESVENLAFAXINE SUCCINATE], the “Bacterial Biotransformation” value in [2], in data set [3], in [4], in data set [18], in data set [5] and in data set [6] was “Compound NOT metabolized” in each case. Also, the “Bacterial Biotransformation” value in [7], in data set [8], in data set [9], in [10], in data set [12] and in data set [13] was “Compound NOT metabolized” throughout. The “Bacterial Biotransformation” value in [15] and in data set [17] was “Compound NOT metabolized” throughout.

For `CNCC[C@H](Oc1cccc2ccccc12)c1cccs1` [DULOXETINE], the “Bacterial Biotransformation” value in data set [1] is listed as “Compound metabolized”; in data set [2] it was “Compound metabolized”; in data set [3], “Compound NOT metabolized”; in data set [4], “Compound NOT metabolized”; in data set [18], “Compound metabolized”; in data set [6], “Compound NOT metabolized”. In addition, the “Bacterial Biotransformation” value in data set [7] is recorded as “Compound metabolized”; in data set [8] it was “Compound NOT metabolized”; in data set [9] it was “Compound NOT metabolized”; in data set [10], “Compound NOT metabolized”; in data set [11] it was “Compound NOT metabolized”; in data set [12] it was “Compound metabolized”. The “Bacterial Biotransformation” value in [13] is reported as “Compound NOT metabolized”; in data set [15], “Compound NOT metabolized”; in [16], “Compound metabolized”; in [17], “Compound metabolized”.

For `CC1Cc2ccccc2N1NC(=O)c1ccc(Cl)c(S(N)(=O)=O)c1` (stereo unspecified) [INDAPAMIDE], the “Bacterial Biotransformation” value in data set [1], in data set [19], in data set [3], in data set [18], in data set [5] and in data set [6] was “Compound NOT metabolized” throughout. The “Bacterial Biotransformation” value in data set [7], in [8], in [10], in data set [11], in data set [13] and in [14] was “Compound NOT metabolized” in each case. Moreover, the “Bacterial Biotransformation” value in data set [15], in data set [16] and in [17] was “Compound NOT metabolized” in each case.

As to `COc1ccc2c(c1)c(CC(=O)O)c(C)n2C(=O)c1ccc(Cl)cc1` [INDOMETHACIN], the “Bacterial Biotransformation” value is given as “Compound NOT metabolized” in [1]; “Compound NOT metabolized” in data set [2]; “Compound metabolized” in [19]; “Compound metabolized” in data set [3]; “Compound metabolized” in [20]; “Compound metabolized” in [4]. The “Bacterial Biotransformation” value in data set [18] is “Compound metabolized”; in data set [5], “Compound metabolized”; in data set [7], “Compound NOT metabolized”; in data set [8], “Compound NOT metabolized”; in [9], “Compound metabolized”; in [10], “Compound NOT metabolized”. For the same molecule, the “Bacterial Biotransformation” value in [11] is recorded as “Compound NOT metabolized”; in data set [12], “Compound metabolized”; in [13], “Compound NOT metabolized”; in data set [14], “Compound metabolized”; in data set [15], “Compound metabolized”; in data set [16] it was “Compound metabolized”. For the same molecule, in data set [17], the “Bacterial Biotransformation” value is on record as “Compound metabolized”.

For the molecule `COCCc1ccc(OCC(O)CNC(C)C)cc1.COCCc1ccc(OCC(O)CNC(C)C)cc1.O=C(O)C(O)C(O)C(=O)O` (stereo unspecified) [METOPROLOL TARTRATE], the “Bacterial Biotransformation” value in [1] is “Compound metabolized”; in data set [2], “Compound NOT metabolized”; in data set [3], “Compound NOT metabolized”; in [4], “Compound NOT metabolized”; in data set [18] it was “Compound NOT metabolized”; in [5], “Compound NOT metabolized”. Further, the “Bacterial Biotransformation” value in data set [6], in [7], in data set [8], in data set [9], in data set [10] and in data set [11] was “Compound NOT metabolized” in each case. In addition, the “Bacterial Biotransformation” value in data set [12], in data set [13], in data set [15] and in [16] was “Compound NOT metabolized” in each case.

`CCOc1ccc(NC(C)=O)cc1` [PHENACETIN]: the “Bacterial Biotransformation” value in [1], in data set [2], in data set [19], in data set [3], in data set [20] and in [4] was “Compound NOT metabolized” each time. Further, the “Bacterial Biotransformation” value in data set [18], in data set [5], in data set [7], in [8], in data set [9] and in data set [10] was “Compound NOT metabolized” each time. Also, the “Bacterial Biotransformation” value in data set [11], in data set [12], in data set [13], in [14], in data set [15] and in [16] was “Compound NOT metabolized” each time. Besides, the “Bacterial Biotransformation” value in data set [17] is listed as “Compound NOT metabolized”.
